Reference: patent publication US8822458B2, “Substituted oxazolidinones and their use in the field of blood coagulation” (Bayer Intellectual Property GmbH, priority 1999, dated 2014)
pIC50: −log10 of the molar value.

Assays:
human factor Xa (FXa) = human factor Xa (FXa) (Homo sapiens (Human), UniProt P00742); experiment: Determination of the factor Xa inhibition (chromogenic substrate); type: biochemical
Procedure: Factor Xa cleaves p-nitroaniline from the chromogenic substrate. The determinations were carried out in microtitre plates as follows.
The test substances, in various concentrations, were dissolved in DMSO and incubated at 25° C. with human FXa (0.5 nmol/l dissolved in 50 mmol/l of tris buffer [C,C,C-tris(hydroxymethyl)-aminomethane], 150 mmol/l of NaCl, 0.1% BSA (bovine serum albumin), pH=8.3) for 10 minutes. Pure DMSO was used as control. The chromogenic substrate (150 μmol 11 of Pefachrome® FXa from Pentapharm) was then added.

[1] = test system: thrombus formation in arteriovenous shunt; experiment: Arteriovenous shunt model (rat), antithrombotic activity; type: in vivo; details: po, read-out: ED50 [mg/kg] p.o.
Procedure: b) Determination of the Antithrombotic Activity (In Vivo) b.1) Arteriovenous Shunt Model (Rat) Fasting male rats (strain: HSD CPB:WU) having a weight of 200-250 g were anaesthetized using a Rompun/Ketavet solution (12 mg/kg/50 mg/kg). Thrombus formation was initiated in an arteriovenous shunt in accordance with the method described by Christopher N. Berry et al., Br. J. Pharmacol. (1994), 113, 1209-1214. To this end, the left jugular vein and the right carotid artery were exposed. The two vessels were connected by an extracorporeal shunt using a polyethylene tube (PE 60) of a length of 10 cm. […] The extracorporeal circulation was maintained for 15 minutes. The shunt was then removed and the nylon thread with the thrombus was weighed immediately. The weight of the nylon thread on its own had been determined before the experiment was started. Before the extracorporeal circulation was set up, the test substances were administered to the animals while awake either intravenously via the tail vein or orally using a pharyngeal tube.

human factor Xa (FXa), sequence (P00742 235-488): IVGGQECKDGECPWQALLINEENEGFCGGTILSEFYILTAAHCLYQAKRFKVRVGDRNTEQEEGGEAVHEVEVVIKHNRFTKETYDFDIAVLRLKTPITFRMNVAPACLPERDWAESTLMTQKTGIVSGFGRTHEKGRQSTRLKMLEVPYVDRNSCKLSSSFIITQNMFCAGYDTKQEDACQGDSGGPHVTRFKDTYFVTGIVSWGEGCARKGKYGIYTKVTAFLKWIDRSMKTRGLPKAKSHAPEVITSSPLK
human factor Xa (FXa), sequence (P00742 41-179 partner): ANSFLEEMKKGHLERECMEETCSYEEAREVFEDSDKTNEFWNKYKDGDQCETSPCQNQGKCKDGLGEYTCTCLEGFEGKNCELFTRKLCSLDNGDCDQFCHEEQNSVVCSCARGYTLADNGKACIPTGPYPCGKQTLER

SMILES: O=C(NC[C@H]1CN(c2ccc(S(=O)(=O)N3CCC3)cc2)C(=O)O1)c1ccc(Cl)s1 [Example 39, 5-Chloro-N-({(5S)-3-[4-(1-azetidinylsulphonyl)phenyl]-2-oxo-1,3-oxazolidin-5-yl}methyl)-2-thiophenecarboxannide]
- pIC50 (human factor Xa (FXa); human FXa 0.5 nmol/l, Pefachrome FXa substrate, 25° C., value printed in example text): 6.08

SMILES: O=C(NC[C@H]1CN(c2ccc(N3CCOCC3=O)cc2)C(=O)O1)c1ccc(Cl)s1 [Example 44, 5-Chloro-N-({(5S)-2-oxo-3-[4-(3-oxo-4-morpholinyl)phenyl]-1,3-oxazolidin-5-yl}methyl)-2-thiophenecarboxamide]
- ED50 [1]: 3 mg/kg

SMILES: O=C(NC[C@H]1CN(c2ccc(N3CCN(C(=O)CO)CC3)c(F)c2)C(=O)O1)c1ccc(Cl)s1 [Example 48]
- pIC50 (human factor Xa (FXa); human FXa, table of Examples 48-57): 6.92
